From US10590113B2, “6-hydroxy-4-oxo-1,4-dihydropyrimidine-5-carboxamides as APJ agonists” (priority 2016, dated 2020) come the findings set out here.

One test concerns the target T1, human APJ receptor (Homo sapiens, UniProt P35414).
T1 construct: expressed in transfected cells; host or cells: HEK293
T1 sequence (P35414 1-380): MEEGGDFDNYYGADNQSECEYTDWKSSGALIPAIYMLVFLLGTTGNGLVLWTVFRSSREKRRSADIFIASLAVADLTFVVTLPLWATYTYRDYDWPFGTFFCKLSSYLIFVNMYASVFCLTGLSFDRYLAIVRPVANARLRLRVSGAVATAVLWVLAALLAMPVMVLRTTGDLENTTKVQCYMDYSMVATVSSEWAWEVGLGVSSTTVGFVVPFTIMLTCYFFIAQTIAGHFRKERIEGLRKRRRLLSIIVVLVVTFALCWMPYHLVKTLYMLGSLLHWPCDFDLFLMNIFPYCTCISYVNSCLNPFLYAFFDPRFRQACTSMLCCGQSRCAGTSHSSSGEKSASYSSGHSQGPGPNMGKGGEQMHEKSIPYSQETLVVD
Description: Intracellular cAMP Accumulation Assay (APJ hcAMP, HTRF). The format is cell-based.
Settings: not given
In outline:
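Stably transfected HEK293 cells (5,000/well) incubated 30 min at room temperature with serially diluted compound, […] and 2 μM forskolin. cAMP measured by HTRF after 60 min with detection reagents, quantified against a cAMP standard curve; EC50 from variable-slope sigmoidal fit of inhibition of forskolin-stimulated cAMP.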
Consider `CCCCc1nc(O)c(C(=O)N2CC[C@@H](c3ccccc3)C2)c(=O)n1-c1c(CC)cccc1CC` [Example 86, 2-butyl-3-(2,6-diethylphenyl)-6-hydroxy-5-[(3S)-3-phenylpyrrolidine-1-carbonyl]-3,4-dihydropyrimidin-4-one], for which the concentration giving a half-maximal response (EC50) fell in the range of 0.01 to 10 nM.

In the case of `CCCCc1nc(=O)c(C(=O)N2CC[C@H](c3ccccc3)C2)c(O)n1-c1c(CC)cccc1CC` [Example 90, 2-butyl-3-(2,6-diethylphenyl)-6-hydroxy-5-[(3R)-3-phenylpyrrolidine-1-carbonyl]-3,4-dihydropyrimidin-4-one], the EC50 is 0.01 to 10 nM.

Consider `[2H]C([2H])([2H])Oc1cccc(OC([2H])([2H])[2H])c1-n1c(COCC)nc(=O)c(C(=O)N2CC[C@H](c3ccccc3)C2)c1O` [Example 106, 1-[2,6-bis(^2H3)methoxyphenyl]-2-(ethoxymethyl)-6-hydroxy-5-[(3R)-3-phenylpyrrolidine-1-carbonyl]-1,4-dihydropyrimidin-4-one], for which the EC50 was 0.01 to 10 nM.

Compound `[2H]C([2H])([2H])Oc1cccc(OC([2H])([2H])[2H])c1-n1c(COCC)nc(=O)c(C(=O)N2CC[C@@H](c3ccccc3)C2)c1O` [Example 109, 1-[2,6-bis(^2H3)methoxyphenyl]-2-(ethoxymethyl)-6-hydroxy-5-[(3S)-3-phenylpyrrolidine-1-carbonyl]-1,4-dihydropyrimidin-4-one] yielded an EC50 of 0.01 to 10 nM.

Still in this test, the particulars now being: human APJ, intracellular cAMP accumulation; read-out: hAPJ cAMP EC50 Potency range.
Regarding `CCCCc1nc(=O)c(C(=O)N2CCC(c3ccccc3)CC2)c(O)n1-c1c(OC)cccc1OC` [Example 72, 2-butyl-1-(2,6-dimethoxyphenyl)-6-hydroxy-5-(4-phenylpiperidine-1-carbonyl)-1,4-dihydropyrimidin-4-one], the EC50 was 10 to 100 nM.

Consider `CCCCc1nc(=O)c(C(=O)N2CCC(c3ccc(F)cc3)CC2)c(O)n1-c1c(OC)cccc1OC` [Example 74, 2-butyl-1-(2,6-dimethoxyphenyl)-5-[4-(4-fluorophenyl)piperidine-1-carbonyl]-6-hydroxy-1,4-dihydropyrimidin-4-one], for which the EC50 lay within 10 to 100 nM.

For `CCCCc1nc(=O)c(C(=O)N2CCC(c3ccc(F)cc3)C2)c(O)n1-c1c(OC)cccc1OC` (stereo not shown) [Example 87, 2-butyl-3-(2,6-dimethoxyphenyl)-5-[3-(4-fluorophenyl)pyrrolidine-1-carbonyl]-6-hydroxy-3,4-dihydropyrimidin-4-one], the EC50 was 0.01 to 10 nM.

`CCCCc1nc(=O)c(C(=O)N2CC(c3cccc(Cl)c3)C2)c(O)n1-c1c(OC)cccc1OC` [Example 88, 2-butyl-5-[3-(3-chlorophenyl)azetidine-1-carbonyl]-3-(2,6-dimethoxyphenyl)-6-hydroxy-3,4-dihydropyrimidin-4-one]: the EC50 lay in the range of 0.01 to 10 nM.

Consider `COc1cccc(OC)c1-n1c(CCC2CC2)nc(=O)c(C(=O)N2CC[C@H](c3ccccc3)C2)c1O` [Example 96, 2-(2-cyclopropylethyl)-1-(2,6-dimethoxyphenyl)-6-hydroxy-5-[(3R)-3-phenylpyrrolidine-1-carbonyl]-1,4-dihydropyrimidin-4-one], for which the EC50 was in the range of 0.01 to 10 nM.

On to `COc1cccc(OC)c1-n1c(COC(C)C)nc(=O)c(C(=O)N2CC(c3ccccc3)C2)c1O` [Example 110, 1-(2,6-dimethoxyphenyl)-6-hydroxy-5-(3-phenylazetidine-1-carbonyl)-2-[(propan-2-yloxy)methyl]-1,4-dihydropyrimidin-4-one], for which the concentration giving a half-maximal response (EC50) lay in the range of 10 to 100 nM.

In the case of `COc1cccc(OC)c1-n1c(COC(C)C)nc(=O)c(C(=O)N2CC(c3ccc(C)cc3)C2)c1O` [Example 111, 1-(2,6-dimethoxyphenyl)-6-hydroxy-5-[3-(4-methylphenyl)azetidine-1-carbonyl]-2-[(propan-2-yloxy)methyl]-1,4-dihydropyrimidin-4-one], the concentration giving a half-maximal response (EC50) is 10 to 100 nM.

With `CCCCc1nc(=O)c(C(=O)N2CC[C@@H](c3ccccc3)C2)c(O)n1-c1c(OC)ncnc1OC` [Example 112, 2-butyl-3-(4,6-dimethoxypyrimidin-5-yl)-6-hydroxy-5-[(3S)-3-phenylpyrrolidine-1-carbonyl]-3,4-dihydropyrimidin-4-one], the EC50 lay within 0.01 to 10 nM.

Regarding `CCCCc1nc(=O)c(C(=O)N2CC[C@H](c3ccccc3)C2)c(O)n1-c1c(OC)ncnc1OC` [Example 113, 2-butyl-3-(4,6-dimethoxypyrimidin-5-yl)-6-hydroxy-5-[(3R)-3-phenylpyrrolidine-1-carbonyl]-3,4-dihydropyrimidin-4-one], the EC50 was in the range of 0.01 to 10 nM.

In the case of `CCCCc1nc(=O)c(C(=O)N2CCC(c3ccccc3F)C2)c(O)n1[C@@H](CC)c1ccccc1` (stereo partly drawn) [Example 114, 2-butyl-5-[3-(2-fluorophenyl)pyrrolidine-1-carbonyl]-6-hydroxy-3-[(1S)-1-phenylpropyl]-3,4-dihydropyrimidin-4-one], the EC50 lay within 0.01 to 10 nM.

For the compound `CCCCc1nc(=O)c(C(=O)N2CC[C@H](c3ccccc3)C2)c(O)n1[C@@H](COC)c1ccccc1` [Example 116, 2-butyl-6-hydroxy-3-[(1R)-2-methoxy-1-phenylethyl]-5-[(3R)-3-phenylpyrrolidine-1-carbonyl]-3,4-dihydropyrimidin-4-one], the EC50 was in the range of 0.01 to 10 nM.

Take `CCCCc1nc(=O)c(C(=O)N2CC[C@H](c3ccccc3)C2)c(O)n1[C@H](C)c1ccccc1` [Example 117, 2-butyl-6-hydroxy-3-[(1R)-1-phenylethyl]-5-[(3R)-3-phenylpyrrolidine-1-carbonyl]-3,4-dihydropyrimidin-4-one]: the concentration giving a half-maximal response (EC50) was 0.01 to 10 nM.

For the compound `CCCCc1nc(=O)c(C(=O)N2CC[C@@H](c3ccccc3)C2)c(O)n1[C@@H](C)c1cccc(OC)c1` [Example 120, 2-butyl-6-hydroxy-3-[(1S)-1-(3-methoxyphenyl)ethyl]-5-[(3S)-3-phenylpyrrolidine-1-carbonyl]-3,4-dihydropyrimidin-4-one], the EC50 lay in the range of 0.01 to 10 nM.

Take `CCCCc1nc(=O)c(C(=O)N2CC[C@@H](c3ccccc3)C2)c(O)n1[C@@H](CC)c1ccccc1` [Example 121, 2-butyl-6-hydroxy-3-[(1S)-1-phenylpropyl]-5-[(3S)-3-phenylpyrrolidine-1-carbonyl]-3,4-dihydropyrimidin-4-one]: the EC50 lay within 0.01 to 10 nM.

Take `CCCCc1nc(=O)c(C(=O)N2CC[C@H](c3ccccc3)C2)c(O)n1[C@H](C)c1ccccc1OC` [Example 122, 2-butyl-6-hydroxy-3-[(1R)-1-(2-methoxyphenyl)ethyl]-5-[(3R)-3-phenylpyrrolidine-1-carbonyl]-3,4-dihydropyrimidin-4-one]: the concentration giving a half-maximal response (EC50) lay within 0.01 to 10 nM.

Consider `CCCCc1nc(=O)c(C(=O)N2CC[C@H](c3ccccc3)C2)c(O)n1[C@H](CC)c1ccccc1` [Example 124, 2-butyl-6-hydroxy-3-[(1R)-1-phenylpropyl]-5-[(3R)-3-phenylpyrrolidine-1-carbonyl]-3,4-dihydropyrimidin-4-one], for which the concentration giving a half-maximal response (EC50) lay in the range of 0.01 to 10 nM.

Consider `CCCCc1nc(=O)c(C(=O)N2CC[C@@H](c3ccccc3)C2)c(O)n1[C@@H](C)c1ccccc1` [Example 125, 2-butyl-6-hydroxy-3-[(1S)-1-phenylethyl]-5-[(3S)-3-phenylpyrrolidine-1-carbonyl]-3,4-dihydropyrimidin-4-one], for which the EC50 was 0.01 to 10 nM.

In the case of `CCCCc1nc(=O)c(C(=O)N2CC[C@H](c3ccccc3)C2)c(O)n1[C@@H](C)C1CC1` [Example 126, 2-butyl-3-[(1S)-1-cyclopropylethyl]-6-hydroxy-5-[(3R)-3-phenylpyrrolidine-1-carbonyl]-3,4-dihydropyrimidin-4-one], the EC50 was 0.01 to 10 nM.

Regarding `CCCCc1nc(=O)c(C(=O)N2CC[C@@H](c3ccccc3)C2)c(O)n1[C@@H](COC)c1ccccc1` [Example 127, 2-butyl-6-hydroxy-3-[(1R)-2-methoxy-1-phenylethyl]-5-[(3S)-3-phenylpyrrolidine-1-carbonyl]-3,4-dihydropyrimidin-4-one], the EC50 was 10 to 100 nM.

As to `CCCCc1nc(=O)c(C(=O)N2CC[C@@H](c3ccccc3)C2)c(O)n1[C@H](CC)c1ccccc1` [Example 128, 2-butyl-6-hydroxy-3-[(1R)-1-phenylpropyl]-5-[(3S)-3-phenylpyrrolidine-1-carbonyl]-3,4-dihydropyrimidin-4-one], the EC50 is 10 to 100 nM.

Take `CCCCc1nc(=O)c(C(=O)N2CC[C@@H](c3ccccc3)C2)c(O)n1C(c1ccccc1)C(C)C` (stereo partly drawn) [Example 129, 2-butyl-6-hydroxy-3-(2-methyl-1-phenylpropyl)-5-[(3S)-3-phenylpyrrolidine-1-carbonyl]-3,4-dihydropyrimidin-4-one]: the EC50 was 10 to 100 nM.

Regarding `CCCCc1nc(=O)c(C(=O)N2CC[C@H](c3ccccc3)C2)c(O)n1C(c1ccccc1)C(C)C` (stereo partly drawn) [Example 130, 2-butyl-6-hydroxy-3-(2-methyl-1-phenylpropyl)-5-[(3R)-3-phenylpyrrolidine-1-carbonyl]-3,4-dihydropyrimidin-4-one], the EC50 was 10 to 100 nM.

With `CCCCc1nc(=O)c(C(=O)N2CC[C@@H](c3ccccc3)C2)c(O)n1[C@@H](C)C1CC1` [Example 131, 2-butyl-3-[(1S)-1-cyc1opropylethyl]-6-hydroxy-5-[(3S)-3-phenylpyrrolidine-1-carbonyl]-3,4-dihydropyrimidin-4-one], the EC50 was in the range of 10 to 100 nM.

As for `CCCCc1nc(=O)c(C(=O)N2CC[C@@H](c3ccccc3)C2)c(O)n1[C@H](C)c1ccccc1` [Example 132, 2-butyl-6-hydroxy-3-[(1R)-1-phenylethyl]-5-[(3S)-3-phenylpyrrolidine-1-carbonyl]-3,4-dihydropyrimidin-4-one], the EC50 fell in the range of 10 to 100 nM.
